Results as given in patent publication US20230111310A1, “CARBOXYLIC ACID DERIVATIVE-SUBSTITUTED IMINO ARYL COMPOUND, PREPARATION METHOD THEREFOR, HERBICIDAL COMPOSITION AND USE THEREOF” (Qingdao Kingagroot Chemical Compound Co., Ltd., priority 2020, published 2023).

What was measured:
Assay type in all cases: in vivo
[1] = system: Rice; experiment: Transplanted rice safety evaluation; conditions: transplanted japonica rice, 30 g/ha, 21 days after treatment
Experimental: (§1) The activity level criteria for plant damage (i.e., growth control rate) are as follows:
In addition, the rice field soil that loaded into the 1/1,000,000 ha pot was leveled to keep water storage at 3-4 cm depth. The 5 leaf stage rice (japonica rice) was transplanted at 3 cm of transplanting depth the next day. The compound of the present invention was treated by the same way after 5 days of transplantation.
(§2) The fertility condition of Echinochloa crusgalli. Scirpus juncoides. Bidens tripartita L., Monochoria vaginalis, Leptochloa chinensis and Sagittaria trifolia 14 days after the treatment of the compound of the invention and the fertility condition of rice 21 days after the treatment of the compound of the invention respectively with the naked eye. Evaluate the weed control effect with the above activity standard level. Many compounds show excellent activity and selectivity.

[2] = system: corn; experiment: Pre-emergence stage, crop selectivity; conditions: 30 g/ha, 4 weeks
Outline: (§3)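 Test compounds were dissolved in acetone with tween 80, diluted with water and sprayed right after sowing, with seeds covered by 0.5-2 cm of soil. Rates were 500 to 7.5 g/ha. Growth control was scored against activity-level criteria after 4 weeks in the greenhouse.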

[3] = system: cotton; experiment: Pre-emergence stage, crop selectivity; conditions: 30 g/ha, 4 weeks
Outline: as §3

[4] = system: Peanut; experiment: Pre-emergence stage, crop selectivity; conditions: 30 g/ha, 4 weeks
Outline: as §3

[5] = system: Soybeans; experiment: Pre-emergence stage, crop selectivity; conditions: 30 g/ha, 4 weeks
Outline: as §3

[6] = system: Alopecurus japonicus; experiment: Weeding effect in post-emergence stage; conditions: Dose 15 g/ha; for Weeding effect in post-emergence stage, Alopecurus japonicus: level of fresh weight growth control rate
Outline: (§4)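 Seeds are sown in soil-filled pots under 0.5-2 cm soil and grown 2 weeks in greenhouse. Plants at 2-3 leaves are sprayed with compound (acetone, Tween 80, 1.5 liter/ha methyl oleate EC, water) at 7.5 to 500 g/ha. Damage is rated 3 weeks later, averaging three repeats.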

[7] = system: Eleusine indica; experiment: Weeding effect in post-emergence stage; conditions: Dose 15 g/ha; for Weeding effect in post-emergence stage, Eleusine indica: level of fresh weight growth control rate
Outline: as §4

[8] = system: Abutilon theophrasti; experiment: Weeding effect in post-emergence stage; conditions: Dose 15 g/ha; for Weeding effect in post-emergence stage, Abutilon theophrasti: level of fresh weight growth control rate
Outline: as §4

[9] = system: Setaria viridis; experiment: Weeding effect in post-emergence stage; conditions: Dose 15 g/ha; for Weeding effect in post-emergence stage, Setaria viridis: level of fresh weight growth control rate
Outline: as §4

[10] = system: Digitaria sanguinalis; experiment: Weeding effect in post-emergence stage; conditions: Dose 15 g/ha; for Weeding effect in post-emergence stage, Digitaria sanguinalis: level of fresh weight growth control rate
Outline: as §4

[11] = system: Echinochloa crusgalli; experiment: Weeding effect in post-emergence stage; conditions: Dose 15 g/ha; for Weeding effect in post-emergence stage, Echinochloa crusgalli: level of fresh weight growth control rate
Outline: as §4

[12] = system: Scirpus juncoides; experiment: Weed control effect evaluation in rice field; conditions: rice field pot, 30 g/ha, 14 days after treatment
Source text: as §1
(§5) Rice field soil was loaded into a 1/1,000,000 ha pot. The seeds of Echinochloa crusgalli. Scirpus juncoides. Bidens tripartita L., Monochoria vaginalis, and Leptochloa chinensis were sowed and gently covered with soil, then left to stand still in greenhouse in the state of 0.5-1 cm of water storage. The tuber of Sagittaria trifolia was planted in the next day or 2 days later. It was kept at 3-4 cm of water storage thereafter. The weeds were treated by dripping the WP or SC water diluents prepared according to the common preparation method of the compounds of the present invention with pipette homogeneously to achieve specified effective amount when Echinochloa crusgalli. Scirpus juncoides, Bidens tripartita L., Monochoria vaginalis, and Leptochloa chinensis reached 0.5 leaf stage and Sagittaria trifolia reached the time point of primary leaf stage.
as §2

[13] = system: Leptochloa chinensis; experiment: Weed control effect evaluation in rice field; conditions: rice field pot, 30 g/ha, 14 days after treatment
Source text: as §1, §5, §2

[14] = system: Monochoria vaginalis; experiment: Weed control effect evaluation in rice field; conditions: rice field pot, 30 g/ha, 14 days after treatment
Source text: as §1, §5, §2

[15] = system: Amaranthus retroflexus; experiment: Weeding effect in pre-emergence stage; conditions: 30 g/ha, 4 weeks
Outline: as §3

[16] = system: Capsella bursa-pastoris; experiment: Weeding effect in pre-emergence stage; conditions: 30 g/ha, 4 weeks
Outline: as §3

[17] = system: Descurainia sophia; experiment: Weeding effect in pre-emergence stage; conditions: 30 g/ha, 4 weeks
Outline: as §3

[18] = system: Veronica didyma Tenore; experiment: Weeding effect in pre-emergence stage; conditions: 30 g/ha, 4 weeks
Outline: as §3

[19] = system: Abutilon theophrasti; experiment: Weeding effect in pre-emergence stage; conditions: 30 g/ha, 4 weeks
Outline: as §3

[20] = system: Setaria viridis; experiment: Weeding effect in pre-emergence stage; conditions: 30 g/ha, 4 weeks
Outline: as §3

[21] = fresh weight control rate level

SMILES	plant damage level Rice [1]	plant damage level Corn [2]	plant damage level Cotton [3]	plant damage level Peanut [4]	plant damage level Soybeans [5]	Weeding effect in post-emergence stage, Alopecurus japonicus [6]	Weeding effect in post-emergence stage, Eleusine indica [7]	Weeding effect in post-emergence stage, Abutilon theophrasti [8]	Weeding effect in post-emergence stage, Setaria viridis [9]	Weeding effect in post-emergence stage, Digitaria sanguinalis [10]	Weeding effect in post-emergence stage, Echinochloa crusgalli [11]	activity level (weed control effect) Scirpus juncoides [12]	activity level (weed control effect) Leptochloa chinensis [13]	activity level (weed control effect) Monochoria vaginalis [14]	activity level (growth control rate) Amaranthus retroflexus [15]	activity level (growth control rate) Capsella bursa-pastoris [16]	activity level (growth control rate) Descurainia sophia [17]	activity level (growth control rate) Veronica didyma Tenore [18]	activity level (growth control rate) Abutilon theophrasti [19]	activity level (growth control rate) Setaria viridis [20]	also measured
CCOC(=O)[C@@H](C)O/N=C/c1cc(-n2c(=O)cc(C(F)(F)F)n(C)c2=O)c(F)cc1Cl [196(R)]	0 (Level 0: growth control rate is less than 5%)	0 (Level 0: growth control rate is less than 5%)	0 (Level 0: growth control rate is less than 5%)	0 (Level 0: growth control rate is less than 5%)	0 (Level 0: growth control rate is less than 5%)	5 (Level 5: growth control rate is above 85%)	5 (Level 5: growth control rate is above 85%)	5 (Level 5: growth control rate is above 85%)	5 (Level 5: growth control rate is above 85%)	5 (Level 5: growth control rate is above 85%)	5 (Level 5: growth control rate is above 85%)	5 (Level 5: growth control rate is above 85%)	5 (Level 5: growth control rate is above 85%)	5 (Level 5: growth control rate is above 85%)	5 (Level 5: growth control rate is above 85%)	5 (Level 5: growth control rate is above 85%)	5 (Level 5: growth control rate is above 85%)	5 (Level 5: growth control rate is above 85%)	5 (Level 5: growth control rate is above 85%)	5 (Level 5: growth control rate is above 85%)	–
C#CCOC(=O)[C@@H](C)O/N=C/c1cc(-n2c(=O)cc(C(F)(F)F)n(C)c2=O)c(F)cc1Cl [212(R)]	0 (Level 0: growth control rate is less than 5%)	0 (Level 0: growth control rate is less than 5%)	0 (Level 0: growth control rate is less than 5%)	0 (Level 0: growth control rate is less than 5%)	0 (Level 0: growth control rate is less than 5%)	5 (Level 5: growth control rate is above 85%)	5 (Level 5: growth control rate is above 85%)	5 (Level 5: growth control rate is above 85%)	5 (Level 5: growth control rate is above 85%)	5 (Level 5: growth control rate is above 85%)	5 (Level 5: growth control rate is above 85%)	5 (Level 5: growth control rate is above 85%)	5 (Level 5: growth control rate is above 85%)	5 (Level 5: growth control rate is above 85%)	5 (Level 5: growth control rate is above 85%)	5 (Level 5: growth control rate is above 85%)	5 (Level 5: growth control rate is above 85%)	5 (Level 5: growth control rate is above 85%)	5 (Level 5: growth control rate is above 85%)	5 (Level 5: growth control rate is above 85%)	–
C[C@@H](O/N=C/c1cc(-n2c(=O)cc(C(F)(F)F)n(C)c2=O)c(F)cc1Cl)C(=O)OCC(F)(F)F [218(R)]	0 (Level 0: growth control rate is less than 5%)	0 (Level 0: growth control rate is less than 5%)	0 (Level 0: growth control rate is less than 5%)	0 (Level 0: growth control rate is less than 5%)	0 (Level 0: growth control rate is less than 5%)	5 (Level 5: growth control rate is above 85%)	5 (Level 5: growth control rate is above 85%)	5 (Level 5: growth control rate is above 85%)	5 (Level 5: growth control rate is above 85%)	5 (Level 5: growth control rate is above 85%)	5 (Level 5: growth control rate is above 85%)	5 (Level 5: growth control rate is above 85%)	5 (Level 5: growth control rate is above 85%)	5 (Level 5: growth control rate is above 85%)	5 (Level 5: growth control rate is above 85%)	5 (Level 5: growth control rate is above 85%)	5 (Level 5: growth control rate is above 85%)	5 (Level 5: growth control rate is above 85%)	5 (Level 5: growth control rate is above 85%)	5 (Level 5: growth control rate is above 85%)	–
CC(C)N(C)S(=O)(=O)NC(=O)[C@@H](C)O/N=C/c1cc(-n2c(=O)cc(C(F)(F)F)n(C)c2=O)c(F)cc1Cl [421(R)]	0 (Level 0: growth control rate is less than 5%)	0 (Level 0: growth control rate is less than 5%)	0 (Level 0: growth control rate is less than 5%)	0 (Level 0: growth control rate is less than 5%)	0 (Level 0: growth control rate is less than 5%)	–	–	–	–	–	–	5 (Level 5: growth control rate is above 85%)	5 (Level 5: growth control rate is above 85%)	5 (Level 5: growth control rate is above 85%)	5 (Level 5: growth control rate is above 85%)	5 (Level 5: growth control rate is above 85%)	5 (Level 5: growth control rate is above 85%)	5 (Level 5: growth control rate is above 85%)	5 (Level 5: growth control rate is above 85%)	5 (Level 5: growth control rate is above 85%)	Weeding effect in post-emergence stage, Alopecurus japonicus (level) [6, 21]: 5 (Level 5: growth control rate is above 85%); Weeding effect in post-emergence stage, Eleusine indica (level) [7, 21]: 5 (Level 5: growth control rate is above 85%); Weeding effect in post-emergence stage, Abutilon theophrasti (level) [8, 21]: 5 (Level 5: growth control rate is above 85%); Weeding effect in post-emergence stage, Setaria viridis (level) [9, 21]: 5 (Level 5: growth control rate is above 85%); Weeding effect in post-emergence stage, Digitaria sanguinalis (level) [10, 21]: 5 (Level 5: growth control rate is above 85%); Weeding effect in post-emergence stage, Echinochloa crusgalli (level) [11, 21]: 5 (Level 5: growth control rate is above 85%)
